Test results published in ChEMBL document CHEMBL1147745, “Targeting FtsZ for antituberculosis drug discovery: noncytotoxic taxanes as novel antituberculosis agents” (J Med Chem, 2006).
In brackets after ≈: the same amount, converted by molar mass. Activity calls are given as the source filed them. No cut-off for these calls is given here.

Assays:
[1] = tested on: Mycobacterium tuberculosis; experiment: Antimicrobial activity against Mycobacterium tuberculosis IMCJ946.K2; format: functional
[2] = tested on: A549; experiment: Cytotoxicity against human A549 cell line; format: functional, cell-based
[3] = tested on: MCF7; experiment: Cytotoxicity against human MCF7 cell line; format: functional, cell-based
[4] = tested on: Mycobacterium tuberculosis; experiment: Antimicrobial activity against Mycobacterium tuberculosis H37Rv; format: functional
[5] = target: T1, Cell division protein FtsZ (Mycobacterium tuberculosis) (UniProt P9WN95); experiment: FtsZ inactivation in MTB cells at MIC; format: cell-based
T1 sequence (whole entry): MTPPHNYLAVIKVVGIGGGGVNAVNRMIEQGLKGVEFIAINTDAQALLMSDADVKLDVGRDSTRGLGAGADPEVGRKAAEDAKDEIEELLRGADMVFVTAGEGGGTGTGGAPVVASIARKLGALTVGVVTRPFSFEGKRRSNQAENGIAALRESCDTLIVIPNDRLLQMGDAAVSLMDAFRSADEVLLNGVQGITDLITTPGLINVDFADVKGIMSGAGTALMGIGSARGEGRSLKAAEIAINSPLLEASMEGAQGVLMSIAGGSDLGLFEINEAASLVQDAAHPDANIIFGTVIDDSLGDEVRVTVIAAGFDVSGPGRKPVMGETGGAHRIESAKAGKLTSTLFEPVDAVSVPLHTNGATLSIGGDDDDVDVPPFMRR

Row | Compound | MIC99 [1] [µM] | IC50 [2] [µM] | IC50 [3] [µM] | MIC99 [4] [µM] | Activity [5]
1 | CCN(CC)CCC(=O)O[C@H]1C(=O)[C@@]2(C)[C@H]([C@H](OC(=O)c3ccccc3)[C@]3(O)C[C@H](OC(=O)/C=C/c4ccc5ccccc5c4)C(C)=C1C3(C)C)[C@]1(OC(C)=O)CO[C@@H]1C[C@@H]2O | 5 (≈ 4.26 µg/mL) | 9.6 | 3.9 | 10 (≈ 8.52 µg/mL) | 
2 | CC(=O)O[C@@]12CO[C@@H]1C[C@H](OC(=O)CN(C)C)[C@@]1(C)C(=O)[C@H](O)C3=C(C)[C@@H](OC(=O)/C=C/c4ccc5ccccc5c4)C[C@@](O)([C@@H](OC(=O)c4ccccc4)[C@H]21)C3(C)C | 5 (≈ 4.05 µg/mL) | 4.3 | > 20 | 20 (≈ 16.2 µg/mL) | 
3 | COc1ccc2cc(/C=C/C(=O)O[C@H]3C[C@@]4(O)[C@@H](OC(=O)c5ccccc5)[C@H]([C@]5(OC(C)=O)CO[C@@H]5CCO)/C(C)=C(/O)C(=O)C(=C3C)C4(C)C)ccc2c1 | 2.5 (≈ 1.89 µg/mL) | > 80 | > 80 | 2.5 (≈ 1.89 µg/mL) | 
4 | CC(=O)O[C@@]12CO[C@@H]1C[C@H](O)[C@@]1(C)C(=O)[C@H](OC(=O)CN(C)C)C3=C(C)[C@@H](OC(=O)/C=C/c4ccc5ccccc5c4)C[C@@](O)([C@@H](OC(=O)c4ccccc4)[C@H]21)C3(C)C | 10 (≈ 8.1 µg/mL) | 10.8 | 7 | 10 (≈ 8.1 µg/mL) | 
5 | CC(=O)O[C@@]12CO[C@@H]1C[C@H](O)[C@@]1(C)C(=O)[C@H](O)C3=C(C)[C@@H](OC(=O)/C=C/c4ccc5ccccc5c4)C[C@@](O)([C@@H](OC(=O)c4ccccc4)[C@H]21)C3(C)C | 2.5 (≈ 1.81 µg/mL) | 15.7 | 4.5 | 5 (≈ 3.62 µg/mL) | 
6 | CC(=O)O[C@@]1([C@@H]2/C(C)=C(/O)C(=O)C3=C(C)[C@@H](OC(=O)/C=C/c4ccc5ccccc5c4)C[C@@](O)([C@H]2OC(=O)c2ccccc2)C3(C)C)CO[C@@H]1CCO | 1.25 (≈ 0.906 µg/mL) | > 80 | > 80 | 2.5 (≈ 1.81 µg/mL) | Active
7 | CCCCCC(=O)O[C@H]1C(=O)[C@@]2(C)[C@H]([C@H](OC(=O)c3ccccc3)[C@]3(O)C[C@H](OC(=O)[C@H](O)[C@@H](NC(=O)c4ccccc4)c4ccccc4)C(C)=C1C3(C)C)[C@]1(OC(C)=O)CO[C@@H]1C[C@@H]2O | 1.25 (≈ 1.14 µg/mL) | 0.65 | 0.65 | 5 (≈ 4.55 µg/mL) | 
8 | COc1ccc2cc(/C=C/C(=O)O[C@H]3C[C@@]4(O)[C@@H](OC(=O)c5ccccc5)[C@@H]5[C@]6(OC(C)=O)CO[C@@H]6C[C@H](O)[C@@]5(C)C(=O)[C@H](O)C(=C3C)C4(C)C)ccc2c1 | 5 (≈ 3.77 µg/mL) | 5 | 5.3 | 5 (≈ 3.77 µg/mL) | 
9 | CC(=O)O[C@@]12CO[C@@H]1C[C@H](O)[C@@]1(C)C(=O)[C@H](OC(=O)/C=C/c3ccc4ccccc4c3)C3=C(C)[C@@H](O)C[C@@](O)([C@@H](OC(=O)c4ccccc4)[C@H]21)C3(C)C | 10 (≈ 7.25 µg/mL) |  | 14 | 20 (≈ 14.5 µg/mL) | 
10 | CCN(CC)CCC(=O)O[C@H]1C[C@H]2OC[C@@]2(OC(C)=O)[C@H]2[C@H](OC(=O)c3ccccc3)[C@]3(O)C[C@H](OC(=O)/C=C/c4ccc5ccccc5c4)C(C)=C([C@@H](OC(C)=O)C(=O)[C@]12C)C3(C)C | 20 (≈ 17.9 µg/mL) | 17 | 9.4 | 10 (≈ 8.94 µg/mL) | 
11 | CC(=O)O[C@@]12CO[C@@H]1C[C@H](O)[C@@]1(C)C(=O)[C@H](O)C3=C(C)[C@@H](OC(=O)/C=C/c4ccc(Sc5ccccc5)cc4)C[C@@](O)([C@@H](OC(=O)c4ccccc4)[C@H]21)C3(C)C | 2.5 (≈ 1.96 µg/mL) | 4.5 | 3.4 | 2.5 (≈ 1.96 µg/mL) | 
12 | CC(=O)O[C@@]12CO[C@@H]1C[C@H](O)[C@@]1(C)C(=O)[C@H](OC(=O)N(C)C)C3=C(C)[C@@H](OC(=O)/C=C/c4ccc5ccccc5c4)C[C@@](O)([C@@H](OC(=O)c4ccccc4)[C@H]21)C3(C)C |  |  |  |  | Active
13 | CC(=O)O[C@@]1([C@@H]2/C(C)=C(/O)C(=O)C3=C(C)[C@@H](OC(=O)/C=C/c4ccc(Sc5ccccc5)cc4)C[C@@](O)([C@H]2OC(=O)c2ccccc2)C3(C)C)CO[C@@H]1CCO | 1.25 (≈ 0.979 µg/mL) | > 80 | > 80 | 2.5 (≈ 1.96 µg/mL) | 
14 | CC(=O)O[C@H]1C(=O)[C@@]2(C)[C@H]([C@H](OC(=O)c3ccccc3)[C@]3(O)C[C@H](OC(=O)[C@H](O)[C@@H](NC(=O)c4ccccc4)c4ccccc4)C(C)=C1C3(C)C)[C@]1(OC(C)=O)CO[C@@H]1C[C@@H]2O [PACLITAXEL] | 40 (≈ 34.2 µg/mL) | 0.028 | 0.019 | 40 (≈ 34.2 µg/mL) | 
15 | CC(=O)O[C@@]12CO[C@@H]1C[C@H](O)[C@@]1(C)C(=O)[C@H](O)C3=C(C)[C@@H](OC(=O)/C=C/c4ccc(Oc5ccccc5)cc4)C[C@@](O)([C@@H](OC(=O)c4ccccc4)[C@H]21)C3(C)C | 10 (≈ 7.67 µg/mL) | 12.5 | 9.3 | 10 (≈ 7.67 µg/mL) | 
16 | CC(=O)O[C@@]1([C@@H]2/C(C)=C(/O)C(=O)C3=C(C)[C@@H](OC(=O)/C=C/c4ccc(Oc5ccccc5)cc4)C[C@@](O)([C@H]2OC(=O)c2ccccc2)C3(C)C)CO[C@@H]1CCO | 1.25 (≈ 0.959 µg/mL) | > 80 | > 80 | 2.5 (≈ 1.92 µg/mL) | 
17 | CC(=O)O[C@@]12CO[C@@H]1C[C@H](O)[C@@]1(C)C(=O)[C@H](O)C3=C(C)[C@@H](OC(=O)/C=C/c4cccc5ccccc45)C[C@@](O)([C@@H](OC(=O)c4ccccc4)[C@H]21)C3(C)C | 5 (≈ 3.62 µg/mL) | 80 | 5.4 | 5 (≈ 3.62 µg/mL) | 
18 | COc1ccc(C(=O)O[C@H]2[C@@H]3[C@]4(OC(C)=O)CO[C@@H]4C[C@H](O)[C@@]3(C)C(=O)[C@H](O)C3=C(C)[C@@H](OC(=O)/C=C/c4ccc5ccccc5c4)C[C@]2(O)C3(C)C)cc1 | 2.5 (≈ 1.89 µg/mL) | 14 | 7.6 | 5 (≈ 3.77 µg/mL) | 
